Results published in patent publication US9255101B2 (BIOPROJECT, priority 2012, dated 2016).
Counter-ions that a name gives are not always drawn.

molecular target: human H4 receptor (Homo sapiens, UniProt Q9H3N8); assay: biochemical
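Further: radioligand displacement of a [3H]-labelled ligand from membranes of CHO cells stably expressing human H4 receptor, bound radioactivity counted on filters by liquid scintillation.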

| Structure (SMILES) | Ki |
| --- | --- |
| CN1CCC(OC2c3cccc(F)c3CCn3cc(-c4ccccc4)nc32)CC1 (stereo not drawn) [Example 107, 8-fluoro-4-(1-methylpiperidin-4-yloxy)-2-phenyl-9,10-dihydro-4H-3,10a-diaza-benzo[f]azulene] | < 1000 nM |
| CN1CCC(OC2c3ccccc3CCn3cc(-c4ccc(C(=O)NC5CCC(O)CC5)cc4)nc32)CC1 (stereo not drawn) [Example 108, N-(4-hydroxycyclohexyl)-4-[4-(1-methylpiperidin-4-yloxy)-9,10-dihydro-4H-3,10a-diaza-benzo[f]azulen-2-yl]-benzamide] | < 1000 nM |
| CC(C)Cc1cn2c(n1)C(OC1CCN(C)CC1)c1ccccc1CC2 (stereo not drawn) [Example 109, 2-isobutyl-4-(1-methylpiperidin-4-yloxy)-9,10-dihydro-4H-3,10a-diaza-benzo[f]azulene oxalate] | < 300 nM |
| CN1CCC(OC2c3ccccc3CCn3cc(Cc4ccccc4)nc32)CC1 (stereo not drawn) [Example 110, 2-benzyl-4-(1-methyl-piperidin-4-yloxy)-9,10-dihydro-4H-3,10a-diaza-benzo[f]azulene oxalate] | < 300 nM |
| CN1CCC(OC2c3ccccc3CCn3cc(C=Cc4cccs4)nc32)CC1 (stereo not drawn) [Example 111, 4-(1-methylpiperidin-4-yloxy)-2-(2-thiophen-2-ylvinyl)-9,10-dihydro-4H-3,10a-diaza-benzo[f]azulene] | < 30 nM |
| CN1CCC(OC2c3ccccc3CCn3cc(SC4CCN(C(=O)OC(C)(C)C)CC4)nc32)CC1 (stereo not drawn) [Example 114, 4-[4-(1-methylpiperidin-4-yloxy)-9,10-dihydro-4H-3,10a-diaza-benzo[f]azulen-2-ylsulfanyl]-piperidine-1-carboxylic acid tert-butyl ester] | < 300 nM |
| CN1CCC(OC2c3ccccc3CCn3cc(-c4ccc(CNC(=O)OC(C)(C)C)cc4)nc32)CC1 (stereo not drawn) [Example 115, {4-[4-(1-methylpiperidin-4-yloxy)-9,10-dihydro-4H-3,10a-diaza-benzo[f]azulen-2-yl]-benzyl}-carbamic acid tert-butyl ester] | < 300 nM |
| CCOC(=O)c1nc2n(c1C)CCc1ccccc1C2OC1CCN(C)CC1 (stereo not drawn) [Example 118, 1-methyl-4-(1-methylpiperidin-4-yloxy)-9,10-dihydro-4H-3,10a-diaza-benzo[f]azulene-2-carboxylic acid ethyl ester] | < 1000 nM |
| CN1CCC(OC2c3ccccc3CCn3cc(C=CCOCc4ccccc4)nc32)CC1 (stereo not drawn) [Example 124, 2-(3-benzyloxypropenyl)-4-(1-methylpiperidin-4-yloxy)-9,10-dihydro-4H-3,10a-diaza-benzo[f]azulene oxalate] | < 300 nM |
| CN1CCC(OC2c3ccccc3CCn3cc(CCc4cccs4)nc32)CC1 (stereo not drawn) [Example 126, 4-(1-methylpiperidin-4-yloxy)-2-(2-thiophen-2-ylethyl)-9,10-dihydro-4H-3,10a-diaza-benzo[f]azulene oxalate] | < 300 nM |
| Cc1c(-c2ccc(N3CCN(C)C3=O)cc2)nc2n1CCc1ccccc1C2OC1CCN(C)CC1 (stereo not drawn) [Example 132, 1-methyl-3-{4-[1-methyl-4-(1-methylpiperidin-4-yloxy)-9,10-dihydro-4H-3,10a-diaza-benzo[f]azulen-2-yl]-phenyl}-imidazolidin-2-one] | < 300 nM |
| CN1CCC(OC2c3ccccc3CCn3cc(-c4ccc(CNC(=O)C(C)(C)C)cc4)nc32)CC1 (stereo not drawn) [Example 136, 2,2-dimethyl-N-{4-[4-(1-methylpiperidin-4-yloxy)-9,10-dihydro-4H-3,10a-diaza-benzo[f]azulen-2-yl]-benzyl}-propionamide] | < 300 nM |
| COCCC(=O)NCc1ccc(-c2cn3c(n2)C(OC2CCN(C)CC2)c2ccccc2CC3)cc1 (stereo not drawn) [Example 138, 3-methoxy-N-{4-[4-(1-methylpiperidin-4-yloxy)-9,10-dihydro-4H-3,10a-diaza-benzo[f]azulen-2-yl]-benzyl}-propionamide] | < 1000 nM |
| CN1CCC(OC2c3ccccc3CCn3c2nc(-c2ccc(NC(=O)OC(C)(C)C)cc2)c3Cl)CC1 (stereo not drawn) [Example 141, {4-[1-chloro-4-(1-methylpiperidin-4-yloxy)-9,10-dihydro-4H-3,10a-diaza-benzo[f]azulen-2-yl]-phenyl}-carbamic acid tert-butyl ester] | < 30 nM |
| Cc1c(-c2ccc(SCCNC(=O)OC(C)(C)C)cc2)nc2n1CCc1ccccc1C2OC1CCN(C)CC1 (stereo not drawn) [Example 160, (2-{4-[1-methyl-4-(1-methylpiperidin-4-yloxy)-9,10-dihydro-4H-3,10a-diaza-benzo[f]azulen-2-yl]-phenylsulfanyl}-ethyl)-carbamic acid tert-butyl ester oxalate] | < 30 nM |
| COC(=O)CSc1ccc(-c2nc3n(c2C)CCc2ccccc2C3OC2CCN(C)CC2)cc1 (stereo not drawn) [Example 165, {4-[1-methyl-4-(1-methylpiperidin-4-yloxy)-9,10-dihydro-4H-3,10a-diaza-benzo[f]azulen-2-yl]-phenylsulfanyl}-acetic acid methyl ester oxalate] | < 30 nM |
| Cc1c(-c2ccc(SC(C)(C)C)cc2)nc2n1CCc1ccccc1C2OC1CCN(C)CC1 (stereo not drawn) [Example 166, 2-(4-tert-butylsulfanylphenyl)-1-methyl-4-(1-methylpiperidin-4-yloxy)-9,10-dihydro-4H-3,10a-diaza-benzo[f]azulene oxalate] | < 30 nM |
| Cc1c(-c2ccc(C3=CCCC3)cc2)nc2n1CCc1ccccc1C2OC1CCN(C)CC1 (stereo not drawn) [Example 169, 2-(4-cyclopent-1-enylphenyl)-1-methyl-4-(1-methylpiperidin-4-yloxy)-9,10-dihydro-4H-3,10a-diaza-benzo[f]azulene] | < 30 nM |
| Cc1c(-c2ccc(C3=CCCCCC3)cc2)nc2n1CCc1ccccc1C2OC1CCN(C)CC1 (stereo not drawn) [Example 171, 2-(4-cyclohept-1-enylphenyl)-1-methyl-4-(1-methylpiperidin-4-yloxy)-9,10-dihydro-4H-3,10a-diaza-benzo[f]azulene] | < 30 nM |
| Cc1c(-c2ccc(NC(=O)OC3CCCC3)cc2)nc2n1CCc1ccccc1C2OC1CCN(C)CC1 (stereo not drawn) [Example 172, {4-[1-methyl-4-(1-methylpiperidin-4-yloxy)-9,10-dihydro-4H-3,10a-diaza-benzo[f]azulen-2-yl]-phenyl}-carbamic acid cyclopentyl ester] | < 30 nM |
| Cc1c(-c2ccc(NC(=O)OCC(C)C)cc2)nc2n1CCc1ccccc1C2OC1CCN(C)CC1 (stereo not drawn) [Example 174, {4-[1-Methyl-4-(1-methyl-piperidin-4-yloxy)-9,10-dihydro-4H-3,10a-diaza-benzo[f]azulen-2-yl]-phenyl}-carbamic acid isobutyl ester] | < 30 nM |
| Cc1c(-c2ccc(C3CCN(C(=O)OC(C)(C)C)CC3)cc2)nc2n1CCc1ccccc1C2OC1CCN(C)CC1 (stereo not drawn) [Example 177, 4-{4-[1-methyl-4-(1-methylpiperidin-4-yloxy)-9,10-dihydro-4H-3,10a-diaza-benzo[f]azulen-2-yl]-phenyl}-piperidine-1-carboxylic acid tert-butyl ester] | < 30 nM |

Next, values leading:

| Ki | Structure (SMILES) |
| --- | --- |
| < 300 nM | CN(C)Cc1ccc(-c2cn3c(n2)C(OC2CCN(C)CC2)c2ccccc2CC3)cc1 (stereo not drawn) [Example 113, dimethyl-{4-[4-(1-methylpiperidin-4-yloxy)-9,10-dihydro-4H-3,10a-diaza-benzo[f]azulen-2-yl]-benzyl}-amine] |
| < 300 nM | CCOC(=O)c1c(C)nc2n1CCc1ccccc1C2OC1CCN(C)CC1 (stereo not drawn) [Example 116, 2-methyl-4-(1-methylpiperidin-4-yloxy)-9,10-dihydro-4H-3,10a-diazabenzo[f]azulene-1-carboxylic acid ethyl ester] |
| < 300 nM | CN1CCC(OC2c3ccccc3CCn3cc(C(C)(C)c4ccc(Cl)cc4)nc32)CC1 (stereo not drawn) [Example 117, 2-[1-(4-chlorophenyl)-1-methyl-ethyl]-4-(1-methylpiperidin-4-yloxy)-9,10-dihydro-4H-3,10a-diaza-benzo[f]azulene oxalate] |
| < 300 nM | Cc1nc2n(c1-c1ccccc1)CCc1ccccc1C2OC1CCN(C)CC1 (stereo not drawn) [Example 123, 2-methyl-4-(1-methylpiperidin-4-yloxy)-1-phenyl-9,10-dihydro-4H-3,10a-diaza-benzo[f]azulene oxalate] |
| < 300 nM | CN1CCC(OC2c3ccccc3CCn3cc(CCCOCc4ccccc4)nc32)CC1 (stereo not drawn) [Example 128, 2-(3-benzyloxypropyl)-4-(1-methylpiperidin-4-yloxy)-9,10-dihydro-4H-3,10a-diaza-benzo[f]azulene oxalate] |
| < 30 nM | Cc1c(-c2ccc(CCS(C)(=O)=O)cc2)nc2n1CCc1ccccc1C2OC1CCN(C)CC1 (stereo not drawn) [Example 159, 2-[4-(2-methanesulfonylethyl)-phenyl]-1-methyl-4-(1-methylpiperidin-4-yloxy)-9,10-dihydro-4H-3,10a-diaza-benzo[f]azulene] |
| < 300 nM | Cc1c(-c2ccc(N3CCCCC3=O)cc2)nc2n1CCc1ccccc1C2OC1CCN(C)CC1 (stereo not drawn) [Example 162, 1-{4-[1-methyl-4-(1-methylpiperidin-4-yloxy)-9,10-dihydro-4H-3,10a-diaza-benzo[f]azulen-2-yl]-phenyl}-piperidin-2-one oxalate] |
| < 30 nM | Cc1c(-c2ccc(C3=CCCCC3)cc2)nc2n1CCc1ccccc1C2OC1CCN(C)CC1 (stereo not drawn) [Example 170, 2-(4-cyclohex-1-enylphenyl)-1-methyl-4-(1-methylpiperidin-4-yloxy)-9,10-dihydro-4H-3,10a-diaza-benzo[f]azulene] |
| < 300 nM | Cc1c(-c2ccc(N)cc2)nc2n1CCc1ccccc1C2OC1CCN(C)CC1 (stereo not drawn) [Example 173, 4-[1-methyl-4-(1-methylpiperidin-4-yloxy)-9,10-dihydro-4H-3,10a-diaza-benzo[f]azulen-2-yl]-phenylamine] |
| < 30 nM | Cc1c(-c2ccc(NC(=O)OC(C)(C)C(Cl)(Cl)Cl)cc2)nc2n1CCc1ccccc1C2OC1CCN(C)CC1 (stereo not drawn) [Example 175, {4-[1-methyl-4-(1-methylpiperidin-4-yloxy)-9,10-dihydro-4H-3,10a-diaza-benzo[f]azulen-2-yl]-phenyl}-carbamic acid 2,2,2-trichloro-1,1-dimethyl-ethyl ester] |
| < 30 nM | Cc1c(-c2ccc(N3C(=O)OCC3Cc3ccccc3)cc2)nc2n1CCc1ccccc1C2OC1CCN(C)CC1 (stereo not drawn) [Example 176, 4-benzyl-3-{4-[1-methyl-4-(1-methylpiperidin-4-yloxy)-9,10-dihydro-4H-3,10a-diaza-benzo[f]azulen-2-yl]-phenyl}-oxazolidin-2-one] |
